Measurements taken from patent US9980943B2, “Methods of treating muscular dystrophy” (BOARD OF REGENTS OF THE NEVADA SYSTEM OF HIGHER EDUCATION, …, priority 2013, dated 2018).

How the values were obtained:
Assay type in all cases: cell-based, mouse
[1] = system: α7 integrin (LacZ reporter in α7βgal+/− myoblasts); experiment: Myoblast α7+/LacZ integrin FDG assay (Burkin assay in myoblasts, 96-well); settings: α7+/LacZ myoblasts, 96-well
[2] = system: α7 integrin (LacZ reporter in α7+/LacZ myotubes); experiment: Myotube α7 integrin FDG assay (Burkin assay in myotubes, 96-well); settings: myotubes
[3] = system: β-galactosidase in CMV-LacZ C2C12 myoblasts; experiment: CMV-LacZ secondary screen in C2C12 myoblasts (β-Gal stabilizing assay); settings: CMV-LacZ C2C12 myoblasts
In short: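 First, C2C12 myoblasts were transfected with a linearized CMV-LACZ vector and clonal lines selected by FDG β-gal assay. Then cells were exposed to compounds at 0.5, 1, 5, 10, 20 and 40 μM in 96-well format, two replicates each, and β-gal measured.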

[4] = system: β-galactosidase in CMV-LacZ C2C12 myotubes; experiment: CMV-LacZ secondary screen in C2C12 myotubes (β-Gal stabilizing assay); settings: C2C12 CMV-LacZ myotubes, fold relative to DMSO
In short: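 β-Gal level was the read-out, measured in a clonal C2C12 line expressing LacZ from a CMV promoter. Dose-response curves used six concentrations, 0.5 μM up to 40 μM, with duplicate points.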

CCCCN(CC)Cc1ccc(CNC(=S)Nc2ccccc2F)o1 [MLS000689562-01]
Burkin Assay in Myoblasts, signal relative to DMSO ([1]; 0.5 uM): 1.074
Burkin Assay in Myoblasts, signal relative to DMSO ([1]; 1 uM): 1.014
Burkin Assay in Myoblasts, signal relative to DMSO ([1]; 5 uM): 1.013
Burkin Assay in Myoblasts, signal relative to DMSO ([1]; 10 uM): 1.224
Burkin Assay in Myoblasts, signal relative to DMSO ([1]; 20 uM): 0.9537
Burkin Assay in Myoblasts, signal relative to DMSO ([1]; 40 uM): 0.8817
Burkin Assay in Myotubes, α7 integrin LacZ reporter signal relative to DMSO ([2]; 0.5 uM): 1.081
Burkin Assay in Myotubes, α7 integrin LacZ reporter signal relative to DMSO ([2]; 1 uM): 1.035
Burkin Assay in Myotubes, α7 integrin LacZ reporter signal relative to DMSO ([2]; 5 uM): 0.9788
Burkin Assay in Myotubes, α7 integrin LacZ reporter signal relative to DMSO ([2]; 10 uM): 1.0159
Burkin Assay in Myotubes, α7 integrin LacZ reporter signal relative to DMSO ([2]; 20 uM): 0.7236
Burkin Assay in Myotubes, α7 integrin LacZ reporter signal relative to DMSO ([2]; 40 uM): 0.8547
CMV-LACZ in Myoblasts (β-galactosidase activity relative to DMSO) ([3]; 0.5 uM): 0.8453
CMV-LACZ in Myoblasts (β-galactosidase activity relative to DMSO) ([3]; 1 uM): 0.7409
CMV-LACZ in Myoblasts (β-galactosidase activity relative to DMSO) ([3]; 5 uM): 0.8060
CMV-LACZ in Myoblasts (β-galactosidase activity relative to DMSO) ([3]; 10 uM): 1.0858
CMV-LACZ in Myoblasts (β-galactosidase activity relative to DMSO) ([3]; 20 uM): 0.9919
CMV-LACZ in Myoblasts (β-galactosidase activity relative to DMSO) ([3]; 40 uM): 1.0619
CMV-LACZ in Myotubes, signal relative to DMSO ([4]; 0.5 uM): 0.9474
CMV-LACZ in Myotubes, signal relative to DMSO ([4]; 1 uM): 0.8652
CMV-LACZ in Myotubes, signal relative to DMSO ([4]; 5 uM): 1.0300
CMV-LACZ in Myotubes, signal relative to DMSO ([4]; 10 uM): 0.8105
CMV-LACZ in Myotubes, signal relative to DMSO ([4]; 20 uM): 0.9824
CMV-LACZ in Myotubes, signal relative to DMSO ([4]; 40 uM): 0.9788

NS(=O)(=O)c1ccc(NC(=O)CN2CCc3ccccc32)cc1 [MLS000850522-01]
Burkin Assay in Myoblasts, signal relative to DMSO ([1]; 0.5 uM): 0.7993
Burkin Assay in Myoblasts, signal relative to DMSO ([1]; 1 uM): 0.9332
Burkin Assay in Myoblasts, signal relative to DMSO ([1]; 5 uM): 1.307
Burkin Assay in Myoblasts, signal relative to DMSO ([1]; 10 uM): 1.003
Burkin Assay in Myoblasts, signal relative to DMSO ([1]; 20 uM): 0.8743
Burkin Assay in Myoblasts, signal relative to DMSO ([1]; 40 uM): 0.8805
Burkin Assay in Myotubes, α7 integrin LacZ reporter signal relative to DMSO ([2]; 0.5 uM): 0.9439
Burkin Assay in Myotubes, α7 integrin LacZ reporter signal relative to DMSO ([2]; 1 uM): 0.9058
Burkin Assay in Myotubes, α7 integrin LacZ reporter signal relative to DMSO ([2]; 5 uM): 1.11
Burkin Assay in Myotubes, α7 integrin LacZ reporter signal relative to DMSO ([2]; 10 uM): 0.9263
Burkin Assay in Myotubes, α7 integrin LacZ reporter signal relative to DMSO ([2]; 20 uM): 0.9416
Burkin Assay in Myotubes, α7 integrin LacZ reporter signal relative to DMSO ([2]; 40 uM): 0.9324
CMV-LACZ in Myoblasts (β-galactosidase activity relative to DMSO) ([3]; 0.5 uM): 0.8880
CMV-LACZ in Myoblasts (β-galactosidase activity relative to DMSO) ([3]; 1 uM): 1.3763
CMV-LACZ in Myoblasts (β-galactosidase activity relative to DMSO) ([3]; 5 uM): 0.8809
CMV-LACZ in Myoblasts (β-galactosidase activity relative to DMSO) ([3]; 10 uM): 0.8671
CMV-LACZ in Myoblasts (β-galactosidase activity relative to DMSO) ([3]; 20 uM): 0.8358
CMV-LACZ in Myoblasts (β-galactosidase activity relative to DMSO) ([3]; 40 uM): 1.0091
CMV-LACZ in Myotubes, signal relative to DMSO ([4]; 0.5 uM): 0.8848
CMV-LACZ in Myotubes, signal relative to DMSO ([4]; 1 uM): 0.8933
CMV-LACZ in Myotubes, signal relative to DMSO ([4]; 5 uM): 1.1090
CMV-LACZ in Myotubes, signal relative to DMSO ([4]; 10 uM): 1.0751
CMV-LACZ in Myotubes, signal relative to DMSO ([4]; 20 uM): 1.0580
CMV-LACZ in Myotubes, signal relative to DMSO ([4]; 40 uM): 1.0200

COc1ccccc1CC(=O)Nc1cc(S(=O)(=O)N2CCOCC2)ccc1N1CCOCC1 [MLS002170630-01]
Burkin Assay in Myoblasts, signal relative to DMSO ([1]; 0.5 uM): 1.122
Burkin Assay in Myoblasts, signal relative to DMSO ([1]; 1 uM): 0.9708
Burkin Assay in Myoblasts, signal relative to DMSO ([1]; 5 uM): 1.0982
Burkin Assay in Myoblasts, signal relative to DMSO ([1]; 10 uM): 1.216
Burkin Assay in Myoblasts, signal relative to DMSO ([1]; 20 uM): 0.7825
Burkin Assay in Myoblasts, signal relative to DMSO ([1]; 40 uM): 0.6735
Burkin Assay in Myotubes, α7 integrin LacZ reporter signal relative to DMSO ([2]; 0.5 uM): 1.03
Burkin Assay in Myotubes, α7 integrin LacZ reporter signal relative to DMSO ([2]; 1 uM): 1.075
Burkin Assay in Myotubes, α7 integrin LacZ reporter signal relative to DMSO ([2]; 5 uM): 0.9697
Burkin Assay in Myotubes, α7 integrin LacZ reporter signal relative to DMSO ([2]; 10 uM): 1.123
Burkin Assay in Myotubes, α7 integrin LacZ reporter signal relative to DMSO ([2]; 20 uM): 0.8857
Burkin Assay in Myotubes, α7 integrin LacZ reporter signal relative to DMSO ([2]; 40 uM): 1.0714
CMV-LACZ in Myoblasts (β-galactosidase activity relative to DMSO) ([3]; 0.5 uM): 0.9954
CMV-LACZ in Myoblasts (β-galactosidase activity relative to DMSO) ([3]; 1 uM): 0.8054
CMV-LACZ in Myoblasts (β-galactosidase activity relative to DMSO) ([3]; 5 uM): 0.9890
CMV-LACZ in Myoblasts (β-galactosidase activity relative to DMSO) ([3]; 10 uM): 0.9628
CMV-LACZ in Myoblasts (β-galactosidase activity relative to DMSO) ([3]; 20 uM): 0.8233
CMV-LACZ in Myoblasts (β-galactosidase activity relative to DMSO) ([3]; 40 uM): 0.7387
CMV-LACZ in Myotubes, signal relative to DMSO ([4]; 0.5 uM): 0.8136
CMV-LACZ in Myotubes, signal relative to DMSO ([4]; 1 uM): 1.0036
CMV-LACZ in Myotubes, signal relative to DMSO ([4]; 5 uM): 1.2068
CMV-LACZ in Myotubes, signal relative to DMSO ([4]; 10 uM): 0.9248
CMV-LACZ in Myotubes, signal relative to DMSO ([4]; 20 uM): 0.9710
CMV-LACZ in Myotubes, signal relative to DMSO ([4]; 40 uM): 0.8580
